Results taken from patent US5945561A, “Retinoid-like compounds” (Bristol-Myers Squibb Company, priority 1998, dated 1999).

Key:
[1] = system: trauma-induced caecal adhesions in female Wistar rat; assay: Trauma-induced caecal adhesion model in rats (oral treatment once daily for 7 days, examined on seventh postoperative day); type: in vivo; conditions: 1 × daily for 7 days, N = 5, female Wistar rats; for Mean number of adhesions/rat +/- SD: vehicle (peanut oil) 15.4 +/- 4.8; for Mean Adhesion Severity/Rat +/- SD: vehicle (peanut oil) 39.2 +/- 15
Description: Models of peritoneal adhesions induced by surgical trauma have been used to predict the clinical activity of a number of marketed anti-adhesion barrier devices. One such model is the trauma-induced caecal adhesion model in rats.
Adult female Wistar rats were used in our studies. The trauma induction was carried out using aseptic conditions in animals anesthetized with a mixture of Ketamine (100 mg/kg) and Rompun (10 mg/kg) given IP. A 2 cm midline abdominal incision was made and the caecum was exteriorized. Both sides of the caecum were abraded with a dry gauze until there was evidence of punctate bleeding. After replacing the organ in the abdominal cavity, the incision was closed. Trauma to the caecum produces fibrous scar tissue or adhesions to adjacent organs, peritoneal wall, or the omentum. Animals were treated with test compound orally. Oral treatments were administered once daily for up to 7 days.
On the seventh postoperative day, the animals were sacrificed and the peritoneal cavity was exposed and examined for adhesions. Three criteria that were used to evaluate the adhesions are: severity of the adhesions, extent or area of the ceacum involved with adhesions and the number of adhesions formed in each animal. Statistical analysis of the data was performed using students' T test. The following scoring system was used:
1.0 = easily separable, filmy, non-vascularized adhesions
covering 25% of the caecum;
2.0 = dense adhesions separated by blunt dissection and in-
volving 50% of the caecum;
3.0 = dense, fibrous, vascularized adhesions requiring sharp
dissection and covering 75% of the caecum;
4.0 = severe, dense, vascularized adhesions unable to
separate without tearing the adjacent membranes and
covering greater than 75% of the caecum.
The Dose Dependent Effect of Orally Dosed Test Compound on Trauma-induced Ceacal Adhesions in Female Wistar Rat

HL60 cells = assay: Differentiation and apoptosis of HL60 cells (NBT staining); type: cell-based; conditions: culture up to 9 days; for EC50 (culture day necessary to convert cells into a differentiated or apoptosed phenotype): HL60 cells, 1 μm compound, NBT staining
From the text: At the end of each day of the culture period, cells were washed and stained with NBT (nitro blue tetrazolium) and counted.

SMILES | Mean number of adhesions/rat +/- SD ([1]; 3 mg/kg oral) | Mean Adhesion Severity/Rat +/- SD ([1]; 3 mg/kg oral) | Mean number of adhesions/rat +/- SD ([1]; 10 mg/kg oral) | Mean Adhesion Severity/Rat +/- SD ([1]; 10 mg/kg oral) | Mean number of adhesions/rat +/- SD ([1]; 25 mg/kg oral, * p = 0.03) | Mean Adhesion Severity/Rat +/- SD ([1]; 25 mg/kg oral, * p = 0.03) | differentiation and apoptosis of HL60 cells, comparison with t-RA (HL60 cells; 1 μm, result in words) | EC50 (culture day necessary to convert cells into a differentiated or apoptosed phenotype) (HL60 cells) [days]
CC1(C)CC=C(c2ccccc2)c2cc3cc(-c4ccc(C(=O)O)cc4)ccc3cc21 [Example 1] | 14.6 +/- 2.7 | 36 +/- 7.0 | 12.2 +/- 1.6 | 30.2 +/- 5.5 | 6.8 +/- 2.4 | 14.8 +/- 5.6 | comparable to t-RA in this assay | 6.0
CC1=C(/C=C/C(C)=C/C=C/C(C)=C/C(=O)O)C(C)(C)CCC1 [tRA, all-trans retinoic acid, reference compound] | – | – | – | – | – | – | – | 3.2
